Laboratory results published in US10724099B2, “Multiplex methods to assay mixed cell populations simultaneously” (The Broad Institute, Inc., priority 2012, dated 2020).

Assays:
[1] = test system: 308 kinases; assay: Kinase activity profiling, Millipore KinaseProfiler; type: biochemical
[2] = test system: HCT-116 cells; assay: DNA content by propidium iodide flow cytometry; type: cell-based; conditions: 10 μM, 24 hours or 48 hours
Method: In addition, HCT-116 cells were treated with 10 μM of DMSO, or the Aurora Kinase Inhibitors barasertib, GSK1070916, MLN8054, BRD-7880, or tozasertib. 24 hours or 48 hours following treatment, cells were stained with propidium iodide and DNA content per cell was assessed using a Becton Dickinson LSR II flow cytometer.

[3] = target: T1, ABL1(E255K)---phosphorylated (Homo sapiens, UniProt P00519, E255K); assay: DiscoveRx KinomeScan binding; conditions: Entrez ABL1
T1 construct: purchased DiscoveRx (KINOMEscan scanEDGE panel)

[4] = target: T2, ABL1---phosphorylated (Homo sapiens, UniProt P00519); assay: DiscoveRx KinomeScan binding; conditions: Entrez ABL1
T2 construct: purchased DiscoveRx (KINOMEscan scanEDGE panel)

[5] = target: T3, AXL (Homo sapiens, UniProt P30530); assay: DiscoveRx KinomeScan binding
T3 construct: purchased DiscoveRx (KINOMEscan scanEDGE panel)

[6] = target: T4, CDK11 (Homo sapiens, UniProt Q9BWU1); assay: DiscoveRx KinomeScan binding; conditions: Entrez CDK19
T4 construct: purchased DiscoveRx (KINOMEscan scanEDGE panel)

[7] = target: T5, CDK2 (Homo sapiens, UniProt P24941); assay: DiscoveRx KinomeScan binding
T5 construct: purchased DiscoveRx (KINOMEscan scanEDGE panel)

[8] = target: T6, CSNK1D (Homo sapiens, UniProt P48730); assay: DiscoveRx KinomeScan binding
T6 construct: purchased DiscoveRx scanEDGE panel

[9] = target: T7, CSNK1G2 (Homo sapiens, UniProt P78368); assay: DiscoveRx KinomeScan binding
T7 construct: purchased DiscoveRx scanEDGE panel

[10] = target: T8, DCAMKL1 (Homo sapiens, UniProt O15075); assay: DiscoveRx KinomeScan binding; conditions: Entrez DCLK1
T8 construct: purchased DiscoveRx scanEDGE panel

[11] = target: T9, DYRK1B (Homo sapiens, UniProt Q9Y463); assay: DiscoveRx KinomeScan binding
T9 construct: purchased DiscoveRx scanEDGE panel

[12] = target: T10, EPHA2 (Homo sapiens, UniProt P29317); assay: DiscoveRx KinomeScan binding
T10 construct: purchased DiscoveRx scanEDGE panel

[13] = target: T11, ERK1 (Homo sapiens, UniProt P27361); assay: DiscoveRx KinomeScan binding; conditions: Entrez MAPK3
T11 construct: purchased DiscoveRx scanEDGE panel

[14] = target: T12, FGFR3 (Homo sapiens, UniProt P22607); assay: DiscoveRx KinomeScan binding
T12 construct: purchased DiscoveRx scanEDGE panel

[15] = target: T13, FLT3 (Homo sapiens, UniProt P36888); assay: DiscoveRx KinomeScan binding
T13 construct: purchased DiscoveRx scanEDGE panel

[16] = target: T14, GSK3B (Homo sapiens, UniProt P49841); assay: DiscoveRx KinomeScan binding
T14 construct: purchased DiscoveRx scanEDGE panel

[17] = target: T15, JAK2(JH1domain---catalytic) (Homo sapiens, UniProt O60674); assay: DiscoveRx KinomeScan binding
T15 construct: JAK2(JH1domain---catalytic); purchased DiscoveRx scanEDGE panel

[18] = target: T16, JNK2 (Homo sapiens, UniProt P45984); assay: DiscoveRx KinomeScan binding; conditions: Entrez MAPK9
T16 construct: purchased DiscoveRx scanEDGE panel (KinomeScan)

[19] = target: T17, KIT(D816V) (Homo sapiens, UniProt P10721, D816V); assay: DiscoveRx KinomeScan binding
T17 construct: purchased DiscoveRx scanEDGE panel (KinomeScan)

[20] = target: T18, MAP3K4 (Homo sapiens, UniProt Q9Y6R4); assay: DiscoveRx KinomeScan binding
T18 construct: purchased DiscoveRx scanEDGE panel (KinomeScan)

[21] = target: T19, MET (Homo sapiens, UniProt P08581); assay: DiscoveRx KinomeScan binding
T19 construct: purchased DiscoveRx scanEDGE panel (KinomeScan)

[22] = target: T20, MLK1 (Homo sapiens, UniProt P80192); assay: DiscoveRx KinomeScan binding; conditions: Entrez MAP3K9
T20 construct: purchased DiscoveRx scanEDGE panel (KinomeScan)

[23] = target: T21, PAK1 (Homo sapiens, UniProt Q13153); assay: DiscoveRx KinomeScan binding
T21 construct: purchased DiscoveRx scanEDGE panel (KinomeScan)

[24] = target: T22, PAK4 (Homo sapiens, UniProt O96013); assay: DiscoveRx KinomeScan binding
T22 construct: purchased DiscoveRx scanEDGE panel (KinomeScan)

[25] = target: T23, PDGFRB (Homo sapiens, UniProt P09619); assay: DiscoveRx KinomeScan binding
T23 construct: purchased DiscoveRx scanEDGE panel (KinomeScan)

[26] = target: T24, PDPK1 (Homo sapiens, UniProt O15530); assay: DiscoveRx KinomeScan binding
T24 construct: purchased DiscoveRx scanEDGE panel (KinomeScan)

[27] = target: T25, PKAC---alpha (Homo sapiens, UniProt P17612); assay: DiscoveRx KinomeScan binding; conditions: Entrez PRKACA
T25 construct: purchased DiscoveRx scanEDGE panel

[28] = target: T26, PRKCE (Homo sapiens, UniProt Q02156); assay: DiscoveRx KinomeScan binding
T26 construct: purchased DiscoveRx scanEDGE panel

[29] = target: T27, RAF1 (Homo sapiens, UniProt P04049); assay: DiscoveRx KinomeScan binding
T27 construct: purchased DiscoveRx scanEDGE panel

[30] = target: T28, RSK2(Kin.Dom.1---N---terminal) (Homo sapiens, UniProt P51812); assay: DiscoveRx KinomeScan binding; conditions: Entrez RPS6KA3
T28 construct: RSK2(Kin.Dom.1---N---terminal); purchased DiscoveRx scanEDGE panel

[31] = target: T29, TGFBR1 (Homo sapiens, UniProt P36897); assay: DiscoveRx KinomeScan binding
T29 construct: purchased DiscoveRx scanEDGE panel

[32] = target: T30, TIE2 (Homo sapiens, UniProt Q02763); assay: DiscoveRx KinomeScan binding; conditions: Entrez TEK
T30 construct: purchased DiscoveRx scanEDGE panel

[33] = target: T31, TRKA (Homo sapiens, UniProt P04629); assay: DiscoveRx KinomeScan binding; conditions: Entrez NTRK1
T31 construct: purchased DiscoveRx scanEDGE panel

[34] = target: T32, TSSK1B (Homo sapiens, UniProt Q9BXA7); assay: DiscoveRx KinomeScan binding
T32 construct: purchased DiscoveRx scanEDGE panel

[35] = target: T33, ZAP70 (Homo sapiens, UniProt P43403); assay: DiscoveRx KinomeScan binding
T33 construct: purchased DiscoveRx (KinomeScan scanEDGE panel service)

T29 sequence (P36897 34-503): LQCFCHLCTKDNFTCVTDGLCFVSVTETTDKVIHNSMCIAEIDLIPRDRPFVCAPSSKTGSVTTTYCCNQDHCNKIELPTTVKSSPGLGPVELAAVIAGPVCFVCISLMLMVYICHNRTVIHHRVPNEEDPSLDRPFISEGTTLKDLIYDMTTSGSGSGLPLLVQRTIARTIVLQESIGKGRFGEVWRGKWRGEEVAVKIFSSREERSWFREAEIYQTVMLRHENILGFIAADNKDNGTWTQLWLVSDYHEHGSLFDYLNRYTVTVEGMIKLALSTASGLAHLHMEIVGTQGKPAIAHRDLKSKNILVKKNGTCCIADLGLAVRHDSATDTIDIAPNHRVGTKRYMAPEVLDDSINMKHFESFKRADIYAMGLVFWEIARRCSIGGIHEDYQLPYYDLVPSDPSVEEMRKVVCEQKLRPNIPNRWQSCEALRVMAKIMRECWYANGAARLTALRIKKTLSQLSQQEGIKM
T7 sequence (P78368 whole entry): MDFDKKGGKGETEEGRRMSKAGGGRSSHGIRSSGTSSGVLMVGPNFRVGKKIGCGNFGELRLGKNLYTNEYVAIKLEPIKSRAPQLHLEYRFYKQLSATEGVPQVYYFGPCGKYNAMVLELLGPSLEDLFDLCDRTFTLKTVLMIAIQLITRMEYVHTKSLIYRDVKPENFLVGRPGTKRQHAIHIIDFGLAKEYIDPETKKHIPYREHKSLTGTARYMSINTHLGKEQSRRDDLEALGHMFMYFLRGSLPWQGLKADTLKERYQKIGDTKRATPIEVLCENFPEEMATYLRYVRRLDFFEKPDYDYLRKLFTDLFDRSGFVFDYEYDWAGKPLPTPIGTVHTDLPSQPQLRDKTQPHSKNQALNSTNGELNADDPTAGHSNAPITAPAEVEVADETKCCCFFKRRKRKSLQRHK
T22 sequence (O96013 whole entry): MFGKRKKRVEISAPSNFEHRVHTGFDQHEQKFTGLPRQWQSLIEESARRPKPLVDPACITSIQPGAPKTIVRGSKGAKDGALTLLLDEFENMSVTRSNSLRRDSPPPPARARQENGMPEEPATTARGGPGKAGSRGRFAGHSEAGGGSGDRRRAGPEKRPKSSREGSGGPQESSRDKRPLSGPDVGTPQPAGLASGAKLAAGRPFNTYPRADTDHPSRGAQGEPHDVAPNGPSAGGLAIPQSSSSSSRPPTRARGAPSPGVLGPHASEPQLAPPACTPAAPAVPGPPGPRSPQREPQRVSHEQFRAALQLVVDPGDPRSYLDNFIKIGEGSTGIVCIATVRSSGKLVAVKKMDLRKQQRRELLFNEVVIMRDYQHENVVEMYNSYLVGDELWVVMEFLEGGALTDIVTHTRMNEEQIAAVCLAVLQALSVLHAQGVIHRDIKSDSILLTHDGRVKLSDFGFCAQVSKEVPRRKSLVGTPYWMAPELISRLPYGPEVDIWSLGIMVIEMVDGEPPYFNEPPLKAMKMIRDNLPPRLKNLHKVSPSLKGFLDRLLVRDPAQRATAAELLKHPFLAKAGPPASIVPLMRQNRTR
T31 sequence (P04629 33-796): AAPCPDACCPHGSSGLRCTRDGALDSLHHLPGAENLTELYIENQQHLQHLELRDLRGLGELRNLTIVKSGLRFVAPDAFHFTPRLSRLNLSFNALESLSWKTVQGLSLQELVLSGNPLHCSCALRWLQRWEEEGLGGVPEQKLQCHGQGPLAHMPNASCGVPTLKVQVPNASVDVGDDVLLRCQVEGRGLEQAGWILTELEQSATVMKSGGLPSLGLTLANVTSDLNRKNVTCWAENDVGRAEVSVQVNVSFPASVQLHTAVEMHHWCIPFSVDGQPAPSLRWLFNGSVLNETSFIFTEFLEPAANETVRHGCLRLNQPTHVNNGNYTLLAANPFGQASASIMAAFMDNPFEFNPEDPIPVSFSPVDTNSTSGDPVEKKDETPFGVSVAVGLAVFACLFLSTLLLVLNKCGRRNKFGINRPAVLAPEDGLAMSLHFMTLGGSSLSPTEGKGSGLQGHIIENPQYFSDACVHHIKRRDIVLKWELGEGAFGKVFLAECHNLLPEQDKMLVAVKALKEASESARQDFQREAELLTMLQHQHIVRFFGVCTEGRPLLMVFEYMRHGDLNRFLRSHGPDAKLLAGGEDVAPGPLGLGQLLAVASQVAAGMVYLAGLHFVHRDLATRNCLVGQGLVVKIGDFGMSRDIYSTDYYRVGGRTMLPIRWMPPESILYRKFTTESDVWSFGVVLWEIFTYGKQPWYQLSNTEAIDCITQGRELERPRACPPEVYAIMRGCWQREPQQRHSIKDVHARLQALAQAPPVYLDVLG
T18 sequence (Q9Y6R4 whole entry): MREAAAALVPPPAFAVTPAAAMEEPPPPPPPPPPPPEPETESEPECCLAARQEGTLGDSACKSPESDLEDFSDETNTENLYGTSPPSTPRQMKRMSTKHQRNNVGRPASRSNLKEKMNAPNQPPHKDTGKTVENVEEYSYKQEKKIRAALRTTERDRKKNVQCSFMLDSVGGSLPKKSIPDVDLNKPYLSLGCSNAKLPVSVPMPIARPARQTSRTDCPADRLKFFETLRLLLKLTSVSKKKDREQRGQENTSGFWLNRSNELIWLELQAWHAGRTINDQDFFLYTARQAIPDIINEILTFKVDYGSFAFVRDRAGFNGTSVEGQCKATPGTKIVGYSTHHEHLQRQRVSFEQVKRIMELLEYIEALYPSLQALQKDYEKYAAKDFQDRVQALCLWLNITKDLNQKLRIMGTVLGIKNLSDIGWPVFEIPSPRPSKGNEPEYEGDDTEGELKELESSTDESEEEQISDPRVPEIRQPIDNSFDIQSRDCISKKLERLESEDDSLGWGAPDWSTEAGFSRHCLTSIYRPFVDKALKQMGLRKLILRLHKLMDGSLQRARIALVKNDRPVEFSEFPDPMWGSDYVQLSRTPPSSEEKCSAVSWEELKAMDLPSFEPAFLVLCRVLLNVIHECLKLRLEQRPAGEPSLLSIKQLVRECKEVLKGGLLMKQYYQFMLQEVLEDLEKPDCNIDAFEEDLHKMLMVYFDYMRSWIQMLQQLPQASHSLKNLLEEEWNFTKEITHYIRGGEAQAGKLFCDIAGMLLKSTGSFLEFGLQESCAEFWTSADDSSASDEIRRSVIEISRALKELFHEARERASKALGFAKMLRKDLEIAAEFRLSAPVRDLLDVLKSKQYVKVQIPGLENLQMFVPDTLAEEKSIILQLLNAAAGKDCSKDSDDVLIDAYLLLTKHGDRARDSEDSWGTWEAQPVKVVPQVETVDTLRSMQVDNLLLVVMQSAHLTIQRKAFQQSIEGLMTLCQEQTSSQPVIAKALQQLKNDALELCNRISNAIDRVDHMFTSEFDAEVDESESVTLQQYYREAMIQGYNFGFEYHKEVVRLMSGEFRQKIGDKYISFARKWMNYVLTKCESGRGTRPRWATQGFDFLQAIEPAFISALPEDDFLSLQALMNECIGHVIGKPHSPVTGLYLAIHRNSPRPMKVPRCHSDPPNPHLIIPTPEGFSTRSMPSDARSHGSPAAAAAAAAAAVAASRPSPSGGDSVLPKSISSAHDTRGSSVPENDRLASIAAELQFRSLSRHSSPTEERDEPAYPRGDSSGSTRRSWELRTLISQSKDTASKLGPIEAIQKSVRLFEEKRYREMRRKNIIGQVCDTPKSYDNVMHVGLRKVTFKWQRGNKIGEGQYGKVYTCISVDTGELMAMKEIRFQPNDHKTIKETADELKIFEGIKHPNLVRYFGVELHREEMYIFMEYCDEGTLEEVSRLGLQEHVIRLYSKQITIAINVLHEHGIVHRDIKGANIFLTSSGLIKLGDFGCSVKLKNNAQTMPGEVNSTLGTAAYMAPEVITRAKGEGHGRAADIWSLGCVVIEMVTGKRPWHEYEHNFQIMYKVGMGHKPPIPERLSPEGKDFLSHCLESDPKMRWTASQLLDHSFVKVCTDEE
T30 sequence (Q02763 23-1124): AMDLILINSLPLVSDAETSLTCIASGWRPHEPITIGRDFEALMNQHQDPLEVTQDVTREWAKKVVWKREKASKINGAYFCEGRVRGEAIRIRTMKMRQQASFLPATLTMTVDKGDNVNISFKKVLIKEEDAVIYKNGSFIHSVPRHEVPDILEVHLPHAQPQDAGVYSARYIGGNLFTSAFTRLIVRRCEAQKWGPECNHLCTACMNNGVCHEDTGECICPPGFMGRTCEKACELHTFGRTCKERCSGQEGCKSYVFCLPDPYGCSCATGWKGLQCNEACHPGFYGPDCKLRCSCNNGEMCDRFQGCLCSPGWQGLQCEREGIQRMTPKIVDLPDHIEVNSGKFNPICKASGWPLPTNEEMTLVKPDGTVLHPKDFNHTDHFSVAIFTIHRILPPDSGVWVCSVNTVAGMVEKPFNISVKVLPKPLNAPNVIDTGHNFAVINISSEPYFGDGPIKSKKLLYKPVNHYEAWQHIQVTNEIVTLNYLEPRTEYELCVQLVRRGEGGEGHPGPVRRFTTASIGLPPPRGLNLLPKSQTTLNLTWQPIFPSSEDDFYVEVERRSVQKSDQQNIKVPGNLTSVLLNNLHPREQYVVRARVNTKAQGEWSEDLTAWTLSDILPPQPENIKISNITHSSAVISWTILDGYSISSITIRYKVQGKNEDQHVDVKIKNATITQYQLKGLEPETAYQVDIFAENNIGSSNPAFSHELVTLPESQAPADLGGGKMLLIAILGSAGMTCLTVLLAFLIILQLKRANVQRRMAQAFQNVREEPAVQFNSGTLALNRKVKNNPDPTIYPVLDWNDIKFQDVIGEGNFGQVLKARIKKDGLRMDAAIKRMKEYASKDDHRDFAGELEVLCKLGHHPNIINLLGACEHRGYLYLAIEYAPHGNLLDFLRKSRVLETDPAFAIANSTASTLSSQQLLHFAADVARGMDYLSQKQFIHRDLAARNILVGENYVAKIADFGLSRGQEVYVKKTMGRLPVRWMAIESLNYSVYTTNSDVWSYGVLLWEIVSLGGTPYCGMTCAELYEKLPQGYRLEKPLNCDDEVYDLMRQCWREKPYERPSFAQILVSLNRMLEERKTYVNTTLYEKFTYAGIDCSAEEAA

In the case of `COc1ccc(NC(=O)Nc2ccc3c(c2)C(=O)N([C@@H](C)CO)C[C@H](C)[C@H](CN(C)Cc2ccc4c(c2)OCO4)O3)cc1` [BRD-7880], the “significant inhibition (defined as activity<25% control) across 308 kinases” value [1] was “inhibited aurora kinase B”, the “DNA content per cell” value [2] was “increased DNA content” and the “Percent Control” value [3] was 80%. The “Percent Control” value [4] was 88%, the “Percent Control” value [5] was 84% and the “Percent Control” value [6] was 43%. For the same compound, the “Percent Control” value [7] was 100%, the “Percent Control” value [8] was 100% and the “Percent Control” value [9] was 100%. The “Percent Control” value [10] was 37%, the “Percent Control” value [11] was 55% and the “Percent Control” value [12] was 86%. The “Percent Control” value [13] was 92%, the “Percent Control” value [14] was 56% and the “Percent Control” value [15] was 65%. For the same compound, the “Percent Control” value [16] was 94%, the “Percent Control” value [17] was 98% and the “Percent Control” value [18] was 89%. The “Percent Control” value [19] was 72%, the “Percent Control” value [20] was 86% and the “Percent Control” value [21] was 100%. For the same compound, the “Percent Control” value [22] was 91%, the “Percent Control” value [23] was 77% and the “Percent Control” value [24] was 100%. For the same compound, the “Percent Control” value [25] was 100%, the “Percent Control” value [26] was 48% and the “Percent Control” value [27] was 69%. The “Percent Control” value [28] was 100%, the “Percent Control” value [29] was 100% and the “Percent Control” value [30] was 80%. For the same compound, the “Percent Control” value [31] was 100%, the “Percent Control” value [32] was 97% and the “Percent Control” value [33] was 84%. The “Percent Control” value [34] was 57% and the “Percent Control” value [35] was 93%.
